Results from patent US10000488B2, “Heterocyclic compound” (TAKEDA PHARMACEUTICAL COMPANY LIMITED, priority 2014, dated 2018).

Assays:
[1] = molecular target: T1, RORγt (Homo sapiens, UniProt P51449); test: RORγt binding test using fluorescent-labeled synthetic ligand (TR-FRET); settings: test compound 1 μM; read-out: binding inhibitory rate (%) of fluorescent-labeled synthetic ligand to RORγt at test compound 1 μM
T1 sequence (P51449 1-497 isoform P51449-2): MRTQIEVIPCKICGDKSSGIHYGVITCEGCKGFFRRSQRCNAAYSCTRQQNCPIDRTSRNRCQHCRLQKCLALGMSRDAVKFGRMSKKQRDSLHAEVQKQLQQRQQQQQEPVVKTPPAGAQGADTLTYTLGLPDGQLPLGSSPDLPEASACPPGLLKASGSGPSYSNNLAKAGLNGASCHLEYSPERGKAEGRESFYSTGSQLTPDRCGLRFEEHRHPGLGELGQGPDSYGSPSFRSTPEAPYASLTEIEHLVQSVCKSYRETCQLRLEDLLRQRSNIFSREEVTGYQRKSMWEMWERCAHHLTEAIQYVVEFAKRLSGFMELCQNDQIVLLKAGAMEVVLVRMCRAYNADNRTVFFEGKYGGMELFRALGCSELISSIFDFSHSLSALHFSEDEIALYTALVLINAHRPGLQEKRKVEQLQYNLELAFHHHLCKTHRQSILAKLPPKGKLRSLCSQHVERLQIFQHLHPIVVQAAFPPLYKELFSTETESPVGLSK
Description: RORγt Binding Test Using Fluorescent-Labeled Synthetic Ligand
The binding activity of the test compound to RORγt was measured by a time resolved fluorescence resonance energy transfer (TR-FRET) utilizing histidine-tagged RORγt, fluorescent-labeled synthetic ligand, and terbium-labeled anti-histidine tag antibody (Invitrogen). First, a test compound diluted with an assay buffer (20 mM Tris-HCl (pH 7.5), 100 mM NaCl, 1 mM DTT, 0.1% BSA) was added to a 384 well plate by 3 μL. Then, RORγt diluted with an assay buffer to 240 nM was added by 3 μL, after which fluorescent-labeled synthetic ligand diluted with the assay buffer to 12 μM was added by 3 μL, and the mixture was stood at room temperature for 20 min. Thereafter, a terbium-labeled anti-histidine tag antibody diluted with the assay buffer to 8 nM was added by 3 μL. The mixture was stood at room temperature for 20 min, and fluorescence intensity (excitation wavelength 320 nm, fluorescence wavelength 520 nm, delay time 100 microseconds) was measured by Envision (PerkinElmer).

[2] = molecular target: T1, RORγt; test: Cofactor recruitment test (Alpha Screen, biotinylated SRC-1 peptide); assay type: biochemical; settings: read-out: signal value inhibitory rate (%) at test compound 1 μM
Description: Cofactor Recruitment Test
Cofactor recruitment test was performed by Alpha Screen (Histidine Detection Kit, PerkinElmer) method. First, a test compound was diluted with an assay buffer (50 mM Tris-HCl (pH 7.5), 50 mM KCl, 1 mM DTT, 0.1% BSA) and added to a 384 well plate by 5 μL. […] The mixture was stood in a dark place for 1 hr, and the signal value was measured by Envision (PerkinElmer).

[3] = molecular target: T1, RORγt; test: Jurkat reporter test (human IL-17 ROR response element luciferase reporter, RORγt vector); assay type: cell-based; settings: test compound 3 μM; Jurkat cells; read-out: luminescence level inhibitory rate (%) at test compound 3 μM
Description: The Jurkat cells used for the reporter test were cultured in a culture medium (RPMI (Invitrogen), 10% FCS (AusGeneX), 100 U/mL penicillin, 100 μg/mL streptomycin). On the day of the test, 4×10^7 cells were recovered by a centrifugal operation (1000 rpm, for 5 min) and suspended in PBS (phosphate buffered saline) (Invitrogen). Thereafter, the cells were recovered again by a centrifugal operation, and suspended in 2 mL of R buffer (NEON transfection kit, Invitrogen). […] Gene transfer was performed by Electroporation apparatus (NEON, Invitrogen) under the conditions of pulse voltage 1350 V, interval 10 milliseconds, number of times 3. The cells after gene transfer were suspended in 40 mL of a reaction medium (RPMI, 10% Lipid reduced FCS (HyClone), 10 mM HEPES (pH 7.5), 100 U/mL penicillin, 100 μg/mL streptomycin, 5 μM lovastatin), and plated in a 96 well plate by 90 μL. A test compound diluted with the reaction medium was added by 10 μL, and the cells were cultured overnight in an incubator. Bright-Glo (Promega) was added by 100 μL, and the mixture was stirred at room temperature for 10 min, and the luminescence level was measured by Envision (PerkinElmer).

Row | Compound | inhibition at 1 µM [1] | inhibition at 1 µM [2] | inhibition at 3 µM [3]
1 | CC(C)n1c(=O)n(CC2CC(F)(F)C2)c(=O)c2cc(NC(=O)N3CCO[C@@H](C(=O)Nc4ccc(C#N)c(Cl)c4)C3)c(F)cc21 [Example 350, (2R)—N^2-(3-chloro-4-cyanophenyl)-N^4-(3-((3,3-difluorocyclobutyl)methyl)-7-fluoro-1-isopropyl-2,4-dioxo-1,2,3,4-tetrahydroquinazolin-6-yl)morpholine-2,4-dicarboxamide] | 102% | 108% | 107%
2 | CC(C)n1c(=O)n(CC2CC2)c(=O)c2cc(NC(=O)N3CCNC(C(=O)Nc4ccc(C#N)c(Cl)c4)C3)ccc21 (stereo not drawn) [Example 82, N^3-(3-chloro-4-cyanophenyl)-N^1-(3-(cyclopropylmethyl)-1-isopropyl-2,4-dioxo-1,2,3,4-tetrahydroquinazolin-6-yl)piperazine-1,3-dicarboxamide] | 101% | 103% | 102%
3 | CC(C)n1c(=O)n(CC2CC2)c(=O)c2cc(NC(=O)N3CCO[C@@H](C(=O)Nc4cc(F)c(C#N)cc4F)C3)c(F)cc21 [Example 171, (2R)-N^2-(4-cyano-2,5-difluorophenyl)-N^4-(3-(cyclopropylmethyl)-7-fluoro-1-isopropyl-2,4-dioxo-1,2,3,4-tetrahydroquinazolin-6-yl)morpholine-2,4-dicarboxamide] | 101% | 107% | 103%
4 | CC(C)n1c(=O)n(CC2CC2(F)F)c(=O)c2cc(NC(=O)N3CCCC(n4cnc5cc(C#N)ccc5c4=O)C3)c(F)cc21 (single isomer, unassigned) [Example 367, (3R)-3-(7-cyano-4-oxoquinazoline-3(4H)-yl)-N-(3-(((1R or 1S)-2,2-difluorocyclopropyl)methyl)-7-fluoro-1-isopropyl-2,4-dioxo-1,2,3,4-tetrahydroquinazolin-6-yl)piperidine-1-carboxamide (one stereoisomer, quinazolinedione: derived from tR1)] | 102% | 105% | 110%
5 | CC(C)n1c(=O)n(CC2CC2)c(=O)c2cc(NC(=O)N3CCO[C@@H](C(=O)Nc4ccc(C#N)c(F)c4)C3)ccc21 [Example 102, (2R)-N^2-(4-cyano-3-fluorophenyl)-N^4-(3-(cyclopropylmethyl)-1-isopropyl-2,4-dioxo-1,2,3,4-tetrahydroquinazolin-6-yl)morpholine-2,4-dicarboxamide] | 101% | 102% | 104%
6 | COC(=O)c1ccc(C(=O)NC2CCCN(C(=O)Nc3ccc4c(c3)c(=O)n(CC3CC3)c(=O)n4C(C)C)C2)cc1 (stereo not drawn) [Example 132, methyl 4-((1-((3-(cyclopropylmethyl)-1-isopropyl-2,4-dioxo-1,2,3,4-tetrahydroquinazolin-6-yl)carbamoyl)piperidin-3-yl)carbamoyl)benzoate] | 102% | 112% | 100%
7 | CC(C)n1c(=O)n(CC2CC2)c(=O)c2cc(NC(=O)N3CCO[C@@H](C(=O)Nc4ccc(C#N)c(Cl)c4)C3)c(F)cc21 [Example 235, (2R)-N^2-(3-chloro-4-cyanophenyl)-N^4-(3-(cyclopropylmethyl)-7-fluoro-1-isopropyl-2,4-dioxo-1,2,3,4-tetrahydroquinazolin-6-yl)morpholine-2,4-dicarboxamide] | 102% | 109% | 103%

Other lines, results leading:

Row | inhibition at 1 µM [1] | inhibition at 1 µM [2] | inhibition at 3 µM [3] | Compound
8 | 101% | 105% | 101% | COC(=O)NCc1ccc(C(=O)N[C@@H]2CCCN(C(=O)Nc3cc4c(=O)n(CC5CC5)c(=O)n(C(C)C)c4cc3F)C2)cc1 [Example 321, methyl (4-(((3R)-1-((3-(cyclopropylmethyl)-7-fluoro-1-isopropyl-2,4-dioxo-1,2,3,4-tetrahydroquinazolin-6-yl)carbamoyl)piperidin-3-yl)carbamoyl)benzyl)carbamate]
9 | 102% | 112% | 102% | CC(C)n1c(=O)n(CC2CC2)c(=O)c2cc(NC(=O)N3CCC[C@@H](NC(=O)c4ccc(C#N)cc4)C3)c(F)cc21 [Example 284, (3R)-3-((4-cyanobenzoyl)amino)-N-(3-(cyclopropylmethyl)-7-fluoro-1-isopropyl-2,4-dioxo-1,2,3,4-tetrahydroquinazolin-6-yl)piperidine-1-carboxamide]
10 | 102% | 106% | 106% | CC(C)n1c(=O)n(CC2CC2)c(=O)c2cc(NC(=O)N3CCC[C@@H](N4Cc5ccc(Cl)cc5C4=O)C3)c(F)cc21 [Example 336, (3R)-3-(6-chloro-1-oxo-1,3-dihydro-2H-isoindol-2-yl)-N-(3-(cyclopropylmethyl)-7-fluoro-1-isopropyl-2,4-dioxo-1,2,3,4-tetrahydroquinazolin-6-yl)piperidine-1-carboxamide]
11 | 98% | 92% | 107% | CC(C)n1c(=O)n(CC2CC2)c(=O)c2cc(NC(=O)N3CCC[C@@H](NC(=O)c4ccc5c(c4)CCN(C(=O)OC(C)(C)C)C5)C3)c(F)cc21 [Example 340, tert-butyl 6-(((3R)-1-((3-(cyclopropylmethyl)-7-fluoro-1-isopropyl-2,4-dioxo-1,2,3,4-tetrahydroquinazolin-6-yl)carbamoyl)piperidin-3-yl)carbamoyl)-3,4-dihydroisoquinoline-2 (1H)-carboxylate]
12 | 102% | 107% | 101% | COc1ccc(C(=O)N[C@@H]2CCCN(C(=O)Nc3cc4c(=O)n(CC5CC5)c(=O)n(C(C)C)c4cc3F)C2)c(F)c1 [Example 291, (3R)-N-(3-(cyclopropylmethyl)-7-fluoro-1-isopropyl-2,4-dioxo-1,2,3,4-tetrahydroquinazolin-6-yl)-3-((2-fluoro-4-methoxybenzoyl)amino)piperidine-1-carboxamide]
13 | 102% | 109% | 102% | CC(C)n1c(=O)n(CC2CC2)c(=O)c2cc(NC(=O)N3CCCC(NC(=O)c4ccc(C#N)nc4)C3)ccc21 (stereo not drawn) [Example 157, 6-cyano-N-(1-((3-(cyclopropylmethyl)-1-isopropyl-2,4-dioxo-1,2,3,4-tetrahydroquinazolin-6-yl)carbamoyl)piperidin-3-yl) nicotinamide]
14 | 102% | 111% | 100% | CC(C)n1c(=O)n(CC2CC2)c(=O)c2cc(NC(=O)N3CCC[C@@H](NC(=O)c4cc(F)ccc4F)C3)c(F)cc21 [Example 287, (3R)-N-(3-(cyclopropylmethyl)-7-fluoro-1-isopropyl-2,4-dioxo-1,2,3,4-tetrahydroquinazolin-6-yl)-3-((2,5-difluorobenzoyl)amino)piperidine-1-carboxamide]
15 | 102% | 112% | 101% | CC(C)n1c(=O)n(CC2CC2)c(=O)c2cc(NC(=O)N3CCC[C@@H](NC(=O)c4ccc(C#N)s4)C3)c(F)cc21 [Example 292, (3R)-3-(((5-cyano-2-thienyl)carbonyl)amino)-N-(3-(cyclopropylmethyl)-7-fluoro-1-isopropyl-2,4-dioxo-1,2,3,4-tetrahydroquinazolin-6-yl)piperidine-1-carboxamide]
